Patent publication US20090123419A1, “TREATMENT OF UTERINE CANCER AND OVARIAN CANCER WITH A PARP INHIBITOR ALONE OR IN COMBINATION WITH ANTI-TUMOR AGENTS” (BiPar Sciences, priority 2007, published 2009)

Key:
[1] = Tissue distribution of BA; assay type: in vivo
[2] = test system: normal cells; assay: Toxic effects of BA in normal cells; assay type: cell-based
[3] = target: T1, PARP (Homo sapiens, UniProt P09874); assay: PARP activity assay in peripheral blood mononuclear cells (PBMCs) from patients; assay type: in vivo; details: for PARP inhibition in PBMCs: after multiple dosing with BA doses of 2.8 mg/kg or higher, FIG. 5, 2.8 mg/kg
T1 construct: endogenous in cells; host or cells: peripheral blood mononuclear cells from patients dosed with BA
Procedure: Whole blood is collected into EDTA vacutainers and human PBMCs are obtained by BD Vacutainer™ CPT™ Cell Preparation kit according to the manufacturer's instructions (BD Vacutainer™, REF 362760). Tumor samples are collected in a sterile container and placed immediately on ice. Within 30 minutes, tumor samples are snap-frozen in liquid nitrogen and stored at −80° C. until homogenized for analysis. The specimen is defrosted on ice and the wet weight is documented. The tissue is homogenized using isotonic buffer [7 mmol/L HEPES, 26 mmol/L KCl, 0.1 mmol/L dextran, 0.4 mmol/L EGTA, 0.5 mmol/L MgCl2, 45 mmol/L sucrose (pH 7.8)]. The homogenate is kept on ice throughout the process, and homogenization is done in 10-second bursts to prevent undue warming of the sample. Unless assayed on the day of homogenization, samples are refrozen to −80° C. and stored at this temperature until analyzed.
Cell preparations are defrosted rapidly at room temperature and washed twice in ice-cold PBS. […] Maximally stimulated PARP activity is measured in replicate samples of 20,000 cells in a reaction mixture containing […] NAD+ and 10 mg/mL oligonucleotide in a reaction buffer of 100 mmol/L Tris-HCl, 120 mmol/L MgCl2 (pH 7.8) in a final volume of […] as described previously (24) at 26° C. in an oscillating water bath. […] Purified PAR standards are loaded onto each membrane (0-25 pmol monomer equivalent) to generate a standard curve and allow quantification. […] Chemiluminesence detected during a 5-minute exposure is measured using a Fuji LAS3000 UV Illuminator (Raytek, Sheffield, United Kingdom) and digitized using the imaging software (Fuji LAS Image version 1.1, Raytek). The acquired image is analyzed using Aida Image Analyzer (version 3.28.001), and results are expressed in LAU/mm2. Three background areas on the exposed blot are measured and the mean of the background signal from the membrane is subtracted from all results. The PAR polymer standard curve is analyzed using an unweighted one-site binding nonlinear regression model and unknowns read off the standard curve so generated. […]

[4] = Clinical safety experience with BA to date; assay type: in vivo, human
[5] = test system: cervical adenocarcinoma Hela cells; assay: BrdU cell proliferation assay in Hela cells; assay type: cell-based, human; details: BA at various concentrations, FIG. 6
Procedure: The effect of BA on the proliferation of cervical adenocarcinoma Hela cells is examined. Cell proliferation is assessed by BrdU assay as described herein.
Hela cell is an immortal cell line used in medical research. The cell line was derived from cervical cancer cells. HeLa S3 is a clonal derivative of the parent HeLa line. The HeLa S3 clone has been very useful in the clonal analysis of mammalian cell populations relating to chromosomal variation, cell nutrition, and plaque-forming ability. HeLa cells have been reported to contain human papilloma virus 18 (HPV-18) sequences. Cells are cultured according to the standard protocol (ATCC) in the art. Briefly: 1. Remove and discard culture medium. 2. […] 3. Add 2.0 to 3.0 ml of Trypsin-EDTA solution to flask and observe cells under an inverted microscope until cell layer is dispersed (usually within 5 to 15 minutes). Cells that are difficult to detach may be placed at 37° C. to facilitate dispersal. 4. Add 6.0 to 8.0 ml of complete growth medium and aspirate cells by gently pipetting. 5. Add appropriate aliquots of the cell suspension to new culture vessels. 6. Incubate cultures at 37° C.
BrdU assay is well known in the art. […] The immune complexes are detected by the subsequent substrate reaction via chemiluminescent detection (based on Cell Proliferation ELISA, BrdU Chemiluminescence Protocol from Roche). […]

[6] = Stability of solutions and drug product; assay type: physicochemical

T1 sequence (P09874 whole entry): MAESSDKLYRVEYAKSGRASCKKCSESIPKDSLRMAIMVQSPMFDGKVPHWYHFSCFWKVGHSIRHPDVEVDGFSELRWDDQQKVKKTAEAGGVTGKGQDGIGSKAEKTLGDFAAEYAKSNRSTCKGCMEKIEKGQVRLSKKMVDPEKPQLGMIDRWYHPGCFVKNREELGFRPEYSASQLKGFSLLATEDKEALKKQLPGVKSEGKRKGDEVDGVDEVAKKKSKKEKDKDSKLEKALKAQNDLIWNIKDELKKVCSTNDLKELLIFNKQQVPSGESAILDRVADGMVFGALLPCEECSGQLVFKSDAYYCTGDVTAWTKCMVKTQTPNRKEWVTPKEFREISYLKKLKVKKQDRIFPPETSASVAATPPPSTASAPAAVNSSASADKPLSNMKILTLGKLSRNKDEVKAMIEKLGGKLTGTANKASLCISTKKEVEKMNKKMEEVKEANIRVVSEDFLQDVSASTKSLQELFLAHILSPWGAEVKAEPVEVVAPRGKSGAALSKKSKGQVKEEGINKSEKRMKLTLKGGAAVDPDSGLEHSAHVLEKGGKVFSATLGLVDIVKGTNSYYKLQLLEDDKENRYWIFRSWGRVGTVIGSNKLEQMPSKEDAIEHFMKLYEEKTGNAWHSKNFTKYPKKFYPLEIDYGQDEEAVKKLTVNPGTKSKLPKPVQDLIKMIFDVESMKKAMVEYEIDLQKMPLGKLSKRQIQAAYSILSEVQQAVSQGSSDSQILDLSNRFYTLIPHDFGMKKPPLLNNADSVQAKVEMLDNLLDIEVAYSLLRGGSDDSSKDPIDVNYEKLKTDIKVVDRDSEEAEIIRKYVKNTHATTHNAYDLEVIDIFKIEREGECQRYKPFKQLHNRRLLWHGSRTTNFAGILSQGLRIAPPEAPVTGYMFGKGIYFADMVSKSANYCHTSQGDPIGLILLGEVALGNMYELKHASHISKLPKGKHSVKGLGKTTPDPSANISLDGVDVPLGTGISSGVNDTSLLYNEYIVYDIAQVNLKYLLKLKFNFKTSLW

SMILES: NC(=O)c1ccc(I)c([N+](=O)[O-])c1 [BA, 4-iodo-3-nitrobenzamide]
- blood-brain barrier crossing ([1]; in vivo): known to cross the blood-brain barrier
- tissue distribution ([1]; including the brain and cerebrospinal fluid (CSF)): distributes rapidly and widely into tissues
- toxic effects in normal cells [2]: without exerting toxic effects in normal cells
- PARP inhibition in PBMCs [3]: significant and prolonged PARP inhibition
- PARP inhibition in PBMCs ([3]; listed as 4-iodo-3-nitrobenzamide): PARP inhibition
- biologically relevant dose that elicits significant and sustained PARP inhibition ([3]; at effective preclinical blood concentrations): 2.8 mg/kg
- safety and tolerability [4]: safe and well-tolerated
- serious adverse events or grade 3 or 4 toxicities associated with BA [4]: no serious adverse events or grade 3 or 4 toxicities
- proliferation of cervical adenocarcinoma Hela cells [5]: inhibits proliferation
- stability of BA dosing solution, time to administration after preparation ([6]; ambient (room) temperature, diluted in 0.9% NS or D5W): ≤ 8 h
- permitted storage of BA drug product ([6]; at 25° C., 10 mg/mL in 25% hydroxypropylbetacyclodextrin/10 mM phosphate buffer, pH 7.4): ≤ 24 h
